Test results from BindingDB's records for patent US11583538 (Venenum Biodesign, 2023).

Molecular target: T1, Three-prime repair exonuclease 1 (Homo sapiens, UniProt Q9NSU2)
T1 sequence (Q9NSU2 whole entry): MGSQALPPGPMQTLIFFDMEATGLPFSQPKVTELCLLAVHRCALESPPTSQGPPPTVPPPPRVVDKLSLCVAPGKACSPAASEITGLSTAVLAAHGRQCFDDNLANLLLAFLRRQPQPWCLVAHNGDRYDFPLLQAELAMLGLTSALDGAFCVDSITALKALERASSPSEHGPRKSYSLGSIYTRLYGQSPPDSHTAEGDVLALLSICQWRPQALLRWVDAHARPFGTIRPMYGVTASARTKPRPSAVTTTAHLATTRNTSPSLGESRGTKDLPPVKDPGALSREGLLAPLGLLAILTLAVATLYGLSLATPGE
Assay: TREX1 Exonuclease Assay
Method: For human TREX1, the nucleotide sequence of the gene construct was codon optimized for expression in the bacterial host. The sequence was incorporated into the pMAL-c5e vector (NEB) downstream of a solubility-promoting MBP (maltose binding protein) fusion partner. The fusion protein product was expressed in E. coli strain BL21 (DE3) (Millipore) and purified in a series of chromatographic steps. Initial steps were conducted using a dextrin sepharose affinity column followed by a Q-sepharose ion exchange column (both GE Healthcare). After the second column the MBP partner was removed by incubation with enterokinase (NEB). Further purification was carried out with the second application of a Q-sepharose column followed by a Superdex 75 (GE Healthcare) size exclusion column. Finally, a heparin sepharose column (GE Healthcare) was applied to remove contaminating nucleotides. […] Next, 4 μL of human TREX1 (0.5 nM), or murine TREX1 (1 nM), diluted in assay buffer (20 mM Tris pH 7.5, 5 mM MgCl, 100 μg/mL BSA, 0.002% Triton X-100, 2 mM DTT), was added to the assay plate. After incubating for 30 minutes, 4 μL of labeled DNA oligonucleotide (500 nM) in assay buffer was added to initiate TREX1 exonuclease activity. The reaction was allowed to proceed for 45 minutes at room temperature prior to the addition of 4 μL of 150 mM EDTA to halt TREX1 activity.

Row | Structure (SMILES) | IC50 [nM]
1 | N[C@@H]1C[C@H]2C(=O)N([C@@H](CCC(=O)O)C(=O)NCc3ccc(Cl)c(Cl)c3)CCC(CCc3ccccc3)N2C1 (stereo not given in full) [US11583538, Example 29] | < 1000
2 | N[C@@H]1C[C@H]2C(=O)N([C@H](CCC(=O)O)C(=O)NCc3ccc(Cl)c(Cl)c3)CCC(COc3cccc(F)c3)N2C1 (stereo not given in full) [US11583538, Example 77] | < 1000
3 | N[C@@H]1C[C@H]2C(=O)N([C@H](CCC(=O)O)C(=O)NCc3ccc(Cl)c(Cl)c3)CCC(COc3ccccc3F)N2C1 (stereo not given in full) [US11583538, Example 79] | < 1000
4 | CC(C)C[C@H](CNS(=O)(=O)c1ccc(Cl)c(Cl)c1)N1CCC(CCc2ccccc2)N2C[C@H](N)C[C@H]2C1=O (stereo not given in full) [US11583538, Example 81] | < 1000
5 | N[C@@H]1C[C@H]2C(=O)N([C@@H]3CCCN(S(=O)(=O)c4ccc(Cl)c(Cl)c4)C3)CCC(CCc3ccccc3)N2C1 (stereo not given in full) [US11583538, Example 83] | < 1000
6 | COC(=O)CC[C@H](C(=O)NCc1ccc(Cl)c(Cl)c1)N1CCC(COc2cccc(F)c2)N2C[C@H](N)C[C@H]2C1=O (stereo not given in full) [US11583538, Example 90] | < 1000
7 | COC(=O)CC[C@H](C(=O)NCc1ccc(Cl)c(Cl)c1)N1CCC(COc2ccc(F)cc2)N2C[C@H](N)C[C@H]2C1=O (stereo not given in full) [US11583538, Example 91] | < 1000
8 | CCOC(=O)CC[C@H](C(=O)NCc1ccc(Cl)c(Cl)c1F)N1CCC(CCc2ccccc2)N2C[C@H](N)C[C@H]2C1=O (stereo not given in full) [US11583538, Example 93] | < 1000
9 | CCOC(=O)CC[C@H](C(=O)NCc1ccc(Cl)c(Cl)n1)N1CCC(CCc2ccccc2)N2C[C@H](N)C[C@H]2C1=O (stereo not given in full) [US11583538, Example 95] | < 1000
10 | N[C@@H]1C[C@H]2C(=O)N([C@H](CCC(=O)NO)C(=O)NCc3ccc(Cl)c(Cl)c3)CCC(COc3cccc(F)c3)N2C1 (stereo not given in full) [US11583538, Example 114] | < 1000
11 | N[C@@H]1C[C@H]2C(=O)N([C@H](CSc3ccccc3O)C(=O)NCc3ccc(Cl)c(Cl)c3)CCC(CCc3ccccc3)N2C1 (stereo not given in full) [US11583538, Example 123] | < 1000
12 | N[C@@H]1C[C@H]2C(=O)N([C@H](CS(=O)(=O)c3ccccc3O)C(=O)NCc3ccc(Cl)c(Cl)c3)CCC(CCc3ccccc3)N2C1 (stereo not given in full) [US11583538, Example 124] | < 1000
13 | CC(C)C[C@H](C(=O)NCc1ccc(Cl)c(Cl)c1)N1CCC(C[S+]([O-])c2ccccc2)N2C[C@H](N)C[C@H]2C1=O (stereo not given in full) [US11583538, Example 125A] | < 1000
14 | N[C@@H]1C[C@H]2C(=O)N([C@H](CCNC(=O)C3CC3)C(=O)NCc3ccc(Cl)c(Cl)c3)CCC(CCc3ccccc3)N2C1 (stereo not given in full) [US11583538, Example 130] | < 1000
15 | N[C@@H]1C[C@H]2C(=O)N([C@H](CCC(=O)O)C(=O)NCc3cc(Cl)c(Cl)c[n+]3[O-])CCC(CCc3ccccc3)N2C1 (stereo not given in full) [US11583538, Example 134] | < 1000
